From publication PMC10026764, “Overcoming the imatinib-resistant BCR-ABL mutants with new ureidobenzothiazole chemotypes endowed with potent and broad-spectrum anticancer activity” (Journal of Enzyme Inhibition and Medicinal Chemistry, 2023)
Where “and” joins values, the source holds several entries; their conditions need not be identical. Equal values may be shown once. Read-outs that look alike come from different tables or passages of the source.

Tests used:
[1] = target: T1, BCR-ABL^T315I (Homo sapiens, UniProt P00519, T315I); details: reported values ref 19; cited from earlier work
T1 construct: purchased Reaction Biology Corporation (RBC, Malvern, PA, USA)

[2] = test system: K-562 cell line; design: method as in PMID 25881828; details: K-562, single dose 10 μM; cited from earlier work
[3] = target: T2, BCR-ABL^WT (Homo sapiens, UniProt P00519); design: method as in PMID 25881828; details: reported values ref 19; cited from earlier work
[4] = test system: L132 normal cell; test: MTT antiproliferative assay; details: Homo sapiens, L132, 72 h, read-out: GI50 L132
Description: (§1) These cellular outcomes define the impact of BCR-ABL inhibition on the proliferation of K-562 cells.

[5] = target: DDR1 (Homo sapiens, UniProt Q08345); test: Kinase selectivity test against DDR1; type: biochemical
Experimental: On the other hand, to gain certain insights about the kinase selectivity of this array of ureidobenzothiazoles, compounds 2a and 2b were tested against DDR1 (Figure 4). Discoidin domain receptors (DDR1/2) are transmembrane receptor tyrosine kinases (RTKs), activated by fibrillar collagens. DDR1/2 and BCR-ABL share almost 61% sequence similarities in their ATP binding domains. […] This observation points out the merit of these ureidobenzothiazoles over the known BCR-ABL inhibitors in achieving exceptional selectivity towards BCR-ABL.

[6] = target: T1, BCR-ABL^T315I; test: In vitro kinase screening (RBC), BCR-ABL^T315I; type: biochemical; details: 10-dose IC50 mode, 3-fold serial dilution, 10 μM ATP
[7] = test system: leukaemia K-562 cells; test: MTT antiproliferative assay; details: for GI50: Homo sapiens, K562, 72 h, read-out: GI50 K-562; for SI: selectivity index (GI50 (L132)/GI50 (K562)): MTT, 72 h
Description: as §1

[8] = target: T2, BCR-ABL^WT; test: In vitro kinase screening (RBC), BCR-ABL^WT; type: biochemical; details: 10-dose IC50 mode, 3-fold serial dilution, 10 μM ATP
[9] = test system: NCI-60 cell lines; test: NCI-60 single dose SRB assay (panel); type: cell-based; details: single dose 10 μM
Description: To gain further insights about the anticancer profile of this new ureidobenzothiazole chemotypes, the structures of all final compounds were submitted to the National Cancer Institute (NCI, Developmental Therapeutics Program, Bethesda, MD, USA). Based on NCI selection criteria, compounds 2b (AK-HW-90), 2e, and 2f were chosen for broad screening against a library of 60 human cancer cell lines, representing nine types of blood and solid cancers. Employing the highly sensitive sulforhodamine B (SRB) assay, compounds 2b, 2e, and 2f were tested initially at a single dose of 10 μM, and their detailed activities on the percentages growth of the NCI-60 cell lines were illustrated in Figure 5, and compared with that observed for the lead benzothiazole AKE-5l.

Chain of DDR1 (Q08345 19-913, species assumed): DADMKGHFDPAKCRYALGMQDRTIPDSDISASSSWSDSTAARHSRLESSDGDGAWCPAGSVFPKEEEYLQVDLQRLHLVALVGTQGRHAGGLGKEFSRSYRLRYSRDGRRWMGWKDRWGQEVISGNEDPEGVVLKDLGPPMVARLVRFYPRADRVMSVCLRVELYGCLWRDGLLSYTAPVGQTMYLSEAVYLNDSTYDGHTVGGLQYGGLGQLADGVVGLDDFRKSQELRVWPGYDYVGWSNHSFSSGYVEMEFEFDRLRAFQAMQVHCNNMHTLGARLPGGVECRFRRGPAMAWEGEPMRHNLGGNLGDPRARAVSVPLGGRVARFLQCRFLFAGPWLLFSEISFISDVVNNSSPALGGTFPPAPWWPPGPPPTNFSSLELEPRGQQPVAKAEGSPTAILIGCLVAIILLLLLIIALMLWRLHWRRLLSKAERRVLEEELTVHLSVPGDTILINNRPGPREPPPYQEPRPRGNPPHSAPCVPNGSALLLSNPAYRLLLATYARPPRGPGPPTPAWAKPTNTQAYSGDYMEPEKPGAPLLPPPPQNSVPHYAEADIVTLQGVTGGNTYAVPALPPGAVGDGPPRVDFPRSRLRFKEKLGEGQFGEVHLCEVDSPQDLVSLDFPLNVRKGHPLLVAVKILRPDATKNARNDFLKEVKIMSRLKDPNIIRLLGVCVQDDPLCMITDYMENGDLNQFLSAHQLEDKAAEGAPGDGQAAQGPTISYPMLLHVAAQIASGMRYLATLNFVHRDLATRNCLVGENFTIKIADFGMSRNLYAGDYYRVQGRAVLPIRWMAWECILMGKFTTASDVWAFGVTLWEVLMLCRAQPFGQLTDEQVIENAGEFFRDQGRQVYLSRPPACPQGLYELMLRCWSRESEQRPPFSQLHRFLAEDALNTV

| Compound | IC50 [1] | % growth [2] | IC50 [3] | GI50 [4] | IC50 [5] | IC50 [6] | GI50 [7] | SI: selectivity index (GI50 (L132)/GI50 (K562)) [7] | IC50 [8] | number of cancer cells with cytostatic growth inhibitory activity (% growth less than 40) [9] |
| --- | --- | --- | --- | --- | --- | --- | --- | --- | --- | --- |
| CNC(=O)c1cc(Oc2ccc3nc(NC(=O)NCCCN4CCN(C)CC4)sc3c2)ccn1 [AKE-5l] | 39.9 nM | 10.22% | 18.2 nM | – | – | – | – | – | – | – |
| COc1ccccc1-c1ccc2nc(NC(=O)Nc3ccc(N4CCN(C)CC4)cc3)sc2c1 [Compound 2a] | – | – | – | 26.8 µM | 195 nM | 2 nM and 2.03 nM | 4.52 µM | 5.9 | 1.5 nM | – |
| COc1ccccc1-c1ccc2nc(NC(=O)Nc3ccc(N4CCOCC4)cc3)sc2c1 [Compound 2c] | – | – | – | 26.1 µM | – | 8.11 nM | 3.82 µM | 6.8 | 2.16 nM | – |
| COc1ccccc1-c1ccc2nc(NC(=O)Nc3cccc(C(F)(F)F)c3)sc2c1 [Compound 2d] | – | – | – | – | – | – | > 10 µM | – | – | – |
| COc1ccccc1-c1ccc2nc(NC(=O)Nc3ccc(CN4CCOCC4)c(C(F)(F)F)c3)sc2c1 [Compound 2f] | – | – | – | – | – | 226 nM | > 10 µM | – | 74.6 nM | 14 cancer cells |
